# Where two headings read alike, the source gives them in different places.
# Experiments:
# [1] = test system: HCT116^MTAP Deletion cells; test: Anti-proliferation assay on cells (Cell-Titer Glo, 10 days); assay type: cell-based; conditions: HCT116^MTAP Deletion cells, 10 days incubation, CTG readout, read-out: HCT116^MTAP Deletion GI50
# Outline: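 HCT116^MTAP Deletion cells seeded at 50 cells/well and exposed to 10-point 3-fold compound dilutions in duplicate (0.1% DMSO) for 10 days at 37 °C. Viability read by CellTiter-Glo luminescence; IC50 derived from GI50 curves of concentration versus inhibition.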
# [2] = test system: SDMA in HCT116^MTAP Deletion; test: In-Cell Western Assay of cellular SDMA; assay type: cell-based; conditions: HCT116^MTAP Deletion cells, 96 hours; read-out: SDMA inhibition IC50 (µM) in HCT116^MTAP Deletion
# Description: (§1) Compound dissolution: All the compounds were dissolved in dimethyl sulfoxide (DMSO) and then stored. The compounds were stored at -20°C for long term storage.
# (§2) 2.3 Cell culture and passaging
# The cells were cultured strictly in accordance with ATCC requirements. […] The supernatant was removed. The cells were resuspended with complete culture medium, inoculated into a culture dish at the required density, and cultured in an incubator at 37 °C, 95% humid air, and 5% carbon dioxide. The culture medium was replenished or the cells were passaged every 2-3 days depending on the cell growth condition.
# 2.4 In-Cell Western Assay of SDMA
# When the confluency of cells in the culture dish reached about 90%, the cells were washed twice with PBS, and then digested with trypsin. 100 µl of the cells was inoculated into each well of a 96-well plate (800 cells/well). The plate was incubated overnight in a 37 °C and 5% CO2 incubator. 50 µL of 3x final concentration of a compound was added to the cell culture plate. Each compound was subjected to a 3-fold dilution, resulting in 10 concentration gradients, in duplicate, and the final concentration of DMSO was 0.5%. The plate was incubated in a 37 °C and 5% CO2 incubator for 96 hours.
# 150µL of 8% paraformaldehyde was added to each well, and the plate was incubated at room temperature for 15 minutes. The supernatant was discarded. The plate was washed with PBS, and 200µL of freshly prepared 1x Permeabilization buffer was added to each well. The plate was incubated at room temperature for 30 minutes. The supernatant was discarded. 200µL of 1x Blocking buffer was added to each well, and the plate was incubated at room temperature for 2 hours. The supernatant was discarded. 50µL of primary antibody (CST, 1x Incubation buffer 1:500 dilution) was added to each well, and the plate was incubated at 4°C overnight. The supernatant was discarded. 250µL of 1x Washing buffer was added to each well, and the plate was washed three times. 50µL of secondary antibody (IRDye 800CW Goat anti-Rabbit IgG and CellTag 700 dye, 1:800 and 1:500 diluted in Incubation buffer) was added to each well, and the plate was incubated at room temperature for 1 hour. The supernatant was discarded. The plate was washed with 1x Washing buffer. Signals were detected using Licor Odyssey CLX. […] According to the different drug concentrations and their corresponding inhibition rates, the IC50 curve was drawn using GraphPad 8.0 software. The data were analyzed, and the final IC50 value was obtained. […] Table 3 Inhibitory activity on cellular SDMA
# HCT116 cells = test: Anti-proliferation assay on cells (Cell-Titer Glo, 10 days); assay type: cell-based; conditions: ratio of GI50 values
# Description: Assay example 1: Method of anti-proliferation assay on cells
# HCT116^MTAP Deletion cells were from Pharmaron (China); HCT116 cells were from ATCC; McCoy's 5A medium was purchased from Invitrogen (USA); penicillin-streptomycin and fetal bovine serum were purchased from Gibco (USA); a 384-well plate was purchased from PerkinElmer (USA); and Cell-Titer Glo reagent was purchased from Promega (USA).
# Compound dissolution: All the compounds were dissolved in dimethyl sulfoxide (DMSO) and then stored. The compounds were stored at room temperature in a dry condition for 3 months for short term storage or at -20 °C for long term storage.
# Cell culture and passaging
# The cells were cultured strictly in accordance with ATCC requirements. The cell culture medium (McCoy's 5A medium + 10% fetal bovine serum + 1% penicillin + streptomycin) was transferred to a 15 mL centrifuge tube and centrifuged at 1000 rpm for 5 min. The supernatant was removed. The cells were resuspended with complete culture medium, inoculated into a culture dish at the required density, and cultured in an incubator at 37 °C, 95% humid air, and 5% carbon dioxide. The culture medium was replenished or the cells were passaged every 2-3 days depending on the cell growth condition.
# Cell proliferation activity assay
# When the confluency of cells in the culture dish reached about 90%, the cells were washed twice with PBS, and then treated with trypsin to become single cells. The cells were counted, and 40µl of the cells was inoculated into each well of a 384-well plate (50 cells/well). The plate was equilibrated at 37 °C and 5% carbon dioxide for 10 to 15 minutes. The compounds were injected into the 384-well plate using Echo550, and positive control and negative control (0.1% DMSO) were set up. Each compound was subjected to a 3-fold dilution, resulting in 10 concentration gradients, in duplicate, and the content of DMSO was 0.1%. The 384-well plate was incubated in a cell culture incubator for 10 days.
# Then, 40 µl of cell proliferation assay reagent (CTG) was added to the 384-well plate, and the plate was shaken to mix well. Then, the 384-well plate was incubated at 37 °C and 5% carbon dioxide in the dark for 30 minutes. The data were read using the Envision multifunctional microplate reader. […] According to the different drug concentrations and their corresponding inhibition rates, the GI50 curve was drawn using GraphPad 8.0 software. The data were analyzed, and the final IC50 value was obtained.
# In addition, the compounds of the present disclosure also have selectivity for mutant HCT116 cells. […] The selectivity data of representative compounds are shown in Table 2: Table 2 Selectivity data of representative compounds
# SDMA in HCT116 = test: In-Cell Western Assay of cellular SDMA; assay type: cell-based; conditions: HCT116 cells, 96 hours; read-out: SDMA inhibition IC50 (µM) in HCT116
# Excerpt: Assay example 2: Method of In-Cell Western Assay of cellular SDMA
# HCT116^MTAP Deletion cells were from Horizon; HCT116 cells were from ATCC; RPMI-1640 medium was purchased from ATCC (USA); penicillin-streptomycin was purchased from Gibco (USA); fetal bovine serum was purchased from ExCell; 96-well plate was purchased from Corning (USA); Symmetric Di-Methyl Arginine Motif [sdme-RG] antibody was purchased from CST (USA); IRDye 800CW Goat anti-Rabbit IgG secondary antibody was purchased from LI-COR (USA), and CellTag 700 stain was purchased from LI-COR (USA).
# as §1, §2
# The cells were cultured strictly in accordance with ATCC requirements. The cell culture medium (RPMI-1640 medium + 10% serum + 1% penicillin + streptomycin) was transferred to a 15 mL centrifuge tube and centrifuged at 1000 rpm for 5 min. The supernatant was removed. […]
# 150µL of 8% paraformaldehyde was added to each well, and the plate was incubated at room temperature for 15 minutes. […] Signals were detected using Licor Odyssey CLX. […] The data were analyzed, and the final IC50 value was obtained. […]
# [3] = Brain permeability in CD1 mice after oral gavage administration; assay type: in vivo, Mouse/CD1/Male; parameters: unit not given here; conditions: 30 mg/kg PO, 0.25-8 hours
# Description: Assay example 4 Investigation of brain permeability in CD1 mice after oral gavage administration
# 4.1.1 Information of administration
# 4.1.3 Collection and processing of blood sample
# 4.1.4 Evaluation during the in vivo experiment
# 4.2 Test sample and preparation
# 4.2.1 Information of test sample
# All the samples were analyzed by LC-MS/MS, and the concentration of the drug to be tested in the samples was determined by the standard curve method.
# For the plasma assay results, the pharmacokinetic parameters were calculated using WinNonlin (Phoenix™) or other similar software.
smiles,measurement,setting,value
C[C@H](c1ncccn1)N(Cc1ccc(C(F)(F)F)cn1)C(=O)C(=O)Nc1cnc(N)c2c1COC2 [Example 2],GI50,[1],10 to 100 nM
same,IC50,[2],< 0.01 µM
CN(C(=O)C(=O)Nc1cnc(N)c2c1cnn2C)C1COCc2cc(C3=CCOCC3)ccc21 (centres unmarked) [Example 132-P1],GI50,[1],< 10 nM
same,Selectivity multiple of HCT116^MTAP WT GI50/ HCT116^MTAP Deletion GI50,HCT116 cells,266
same,IC50,[2],< 0.01 µM
"CN(C(=O)C(=O)Nc1cnc(N)c2c1cnn2C)C1COc2cc(C(F)(F)F)ccc21 (single isomer, unassigned) [Example 112-P1]",GI50,[1],< 10 nM
same,Selectivity multiple of HCT116^MTAP WT GI50/ HCT116^MTAP Deletion GI50,HCT116 cells,385
same,IC50,[2],< 0.01 µM
same,IC50,SDMA in HCT116,0.1 to 1 µM
same,Brain AUClast/D,[3]; brain,428
same,CSF AUClast/D,[3]; cerebrospinal fluid,6.15
same,Plasma AUClast/D,[3]; plasma,464
CN(C(=O)C(=O)Nc1cnc(N)c2c1cnn2C)C1COc2cc(-c3ccnn3C)ccc21 (centres unmarked) [Example 192-P1],Selectivity multiple of HCT116^MTAP WT GI50/ HCT116^MTAP Deletion GI50,HCT116 cells,252
same,IC50,[2],< 0.01 µM
Cc1ncc(-c2ccc3c(c2)COCC3N(C)C(=O)C(=O)Nc2cnc(N)c3c2cnn3C)s1 (centres unmarked) [Example 135],GI50,[1],< 10 nM
same,Selectivity multiple of HCT116^MTAP WT GI50/ HCT116^MTAP Deletion GI50,HCT116 cells,285
same,IC50,[2],< 0.01 µM
CN(C(=O)C(=O)Nc1cnc(N)c2c1cnn2C)C1COCc2cc(-c3ccnn3C)ccc21 (centres unmarked) [Example 156-P1],IC50,[2],< 0.01 µM
"CN(C(=O)C(=O)Nc1cnc(N)c2c1cnn2C)C1COCc2nc(C(F)(F)F)ccc21 (single isomer, unassigned) [Example 152-P2]",GI50,[1],< 10 nM
same,IC50,[2],0.01 to 0.1 µM
CN(C(=O)C(=O)Nc1cnc(N)c2c1cnn2C)C1COCc2cc(C3=CCC(F)(F)CC3)ccc21 (centres unmarked) [Example 157],GI50,[1]; 240 h,< 10 nM
same,Selectivity multiple of HCT116^MTAP WT GI50/ HCT116^MTAP Deletion GI50,HCT116 cells,193
CN(C(=O)C(=O)Nc1cnc(N)c2c1cnn2C)C1COCc2cc(-c3ccc(C(F)(F)F)nc3)ccc21 (centres unmarked) [Example 185],GI50,[1]; 240 h,< 10 nM
same,Selectivity multiple of HCT116^MTAP WT GI50/ HCT116^MTAP Deletion GI50,HCT116 cells,240
CCC(C)N(Cc1ccc(OC(F)(F)F)cn1)C(=O)C(=O)Nc1cnc(N)c2c1cnn2C (centres unmarked) [Example 113],GI50,[1]; 240 h,< 10 nM
same,Selectivity multiple of HCT116^MTAP WT GI50/ HCT116^MTAP Deletion GI50,HCT116 cells,125
Cn1ncc2c(NC(=O)C(=O)N(C3CC3)C3COCc4cc(C(F)(F)F)ccc43)cnc(N)c21 (centres unmarked) [Example 98],GI50,[1]; 240 h,< 10 nM
same,Selectivity multiple of HCT116^MTAP WT GI50/ HCT116^MTAP Deletion GI50,HCT116 cells,106
CN(C(=O)C(=O)Nc1cnc(N)c2c1cnn2C)C1COCc2cc(-c3ccn(C)n3)ccc21 (centres unmarked) [Example 93],GI50,[1]; 240 h,10 to 100 nM
same,Selectivity multiple of HCT116^MTAP WT GI50/ HCT116^MTAP Deletion GI50,HCT116 cells,244
Cc1nn(C)c(C)c1-c1ccc2c(c1)COCC2N(C)C(=O)C(=O)Nc1cnc(N)c2c1cnn2C (centres unmarked) [Example 178],GI50,[1]; 240 h,< 10 nM
same,Selectivity multiple of HCT116^MTAP WT GI50/ HCT116^MTAP Deletion GI50,HCT116 cells,116

# Reference: EP4563571A1, “PRMT5 INHIBITORS” (Beijing Earthwise Technology Co., Ltd., priority 2022, dated 2024)
